Target: T1, human acetyl-CoA carboxylase 2 (ACC2) (Homo sapiens, UniProt O00763)
T1 construct: The cDNA encoding amino acids 144 to 2458 of human acetyl-CoA carboxylase 2; made in house; host or cells: Sf9 insect cells (baculovirus, pFastBac1)
Experiment: Acetyl-CoA carboxylase enzyme assay (malonyl-CoA formation by LC/MS/MS)
Format: biochemical
Conditions: recombinant human ACC2 (aa 144-2458); read-out: IC50 ACC2
In short: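 Malonyl-CoA formation was read by LC/MS/MS MRM against a [13C3]-malonyl-CoA internal standard, after acetic acid quench. The enzyme was baculovirus/Sf9-expressed human ACC2 residues 144–2458, given 15 minutes room-temperature compound preincubation in HEPES pH 7.5 buffer with MgCl2, citrate and DTT. Substrate solution held 50 μM acetyl-CoA, 120 μM ATP and 2 mM KHCO3.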

T1 sequence (O00763 144-2458): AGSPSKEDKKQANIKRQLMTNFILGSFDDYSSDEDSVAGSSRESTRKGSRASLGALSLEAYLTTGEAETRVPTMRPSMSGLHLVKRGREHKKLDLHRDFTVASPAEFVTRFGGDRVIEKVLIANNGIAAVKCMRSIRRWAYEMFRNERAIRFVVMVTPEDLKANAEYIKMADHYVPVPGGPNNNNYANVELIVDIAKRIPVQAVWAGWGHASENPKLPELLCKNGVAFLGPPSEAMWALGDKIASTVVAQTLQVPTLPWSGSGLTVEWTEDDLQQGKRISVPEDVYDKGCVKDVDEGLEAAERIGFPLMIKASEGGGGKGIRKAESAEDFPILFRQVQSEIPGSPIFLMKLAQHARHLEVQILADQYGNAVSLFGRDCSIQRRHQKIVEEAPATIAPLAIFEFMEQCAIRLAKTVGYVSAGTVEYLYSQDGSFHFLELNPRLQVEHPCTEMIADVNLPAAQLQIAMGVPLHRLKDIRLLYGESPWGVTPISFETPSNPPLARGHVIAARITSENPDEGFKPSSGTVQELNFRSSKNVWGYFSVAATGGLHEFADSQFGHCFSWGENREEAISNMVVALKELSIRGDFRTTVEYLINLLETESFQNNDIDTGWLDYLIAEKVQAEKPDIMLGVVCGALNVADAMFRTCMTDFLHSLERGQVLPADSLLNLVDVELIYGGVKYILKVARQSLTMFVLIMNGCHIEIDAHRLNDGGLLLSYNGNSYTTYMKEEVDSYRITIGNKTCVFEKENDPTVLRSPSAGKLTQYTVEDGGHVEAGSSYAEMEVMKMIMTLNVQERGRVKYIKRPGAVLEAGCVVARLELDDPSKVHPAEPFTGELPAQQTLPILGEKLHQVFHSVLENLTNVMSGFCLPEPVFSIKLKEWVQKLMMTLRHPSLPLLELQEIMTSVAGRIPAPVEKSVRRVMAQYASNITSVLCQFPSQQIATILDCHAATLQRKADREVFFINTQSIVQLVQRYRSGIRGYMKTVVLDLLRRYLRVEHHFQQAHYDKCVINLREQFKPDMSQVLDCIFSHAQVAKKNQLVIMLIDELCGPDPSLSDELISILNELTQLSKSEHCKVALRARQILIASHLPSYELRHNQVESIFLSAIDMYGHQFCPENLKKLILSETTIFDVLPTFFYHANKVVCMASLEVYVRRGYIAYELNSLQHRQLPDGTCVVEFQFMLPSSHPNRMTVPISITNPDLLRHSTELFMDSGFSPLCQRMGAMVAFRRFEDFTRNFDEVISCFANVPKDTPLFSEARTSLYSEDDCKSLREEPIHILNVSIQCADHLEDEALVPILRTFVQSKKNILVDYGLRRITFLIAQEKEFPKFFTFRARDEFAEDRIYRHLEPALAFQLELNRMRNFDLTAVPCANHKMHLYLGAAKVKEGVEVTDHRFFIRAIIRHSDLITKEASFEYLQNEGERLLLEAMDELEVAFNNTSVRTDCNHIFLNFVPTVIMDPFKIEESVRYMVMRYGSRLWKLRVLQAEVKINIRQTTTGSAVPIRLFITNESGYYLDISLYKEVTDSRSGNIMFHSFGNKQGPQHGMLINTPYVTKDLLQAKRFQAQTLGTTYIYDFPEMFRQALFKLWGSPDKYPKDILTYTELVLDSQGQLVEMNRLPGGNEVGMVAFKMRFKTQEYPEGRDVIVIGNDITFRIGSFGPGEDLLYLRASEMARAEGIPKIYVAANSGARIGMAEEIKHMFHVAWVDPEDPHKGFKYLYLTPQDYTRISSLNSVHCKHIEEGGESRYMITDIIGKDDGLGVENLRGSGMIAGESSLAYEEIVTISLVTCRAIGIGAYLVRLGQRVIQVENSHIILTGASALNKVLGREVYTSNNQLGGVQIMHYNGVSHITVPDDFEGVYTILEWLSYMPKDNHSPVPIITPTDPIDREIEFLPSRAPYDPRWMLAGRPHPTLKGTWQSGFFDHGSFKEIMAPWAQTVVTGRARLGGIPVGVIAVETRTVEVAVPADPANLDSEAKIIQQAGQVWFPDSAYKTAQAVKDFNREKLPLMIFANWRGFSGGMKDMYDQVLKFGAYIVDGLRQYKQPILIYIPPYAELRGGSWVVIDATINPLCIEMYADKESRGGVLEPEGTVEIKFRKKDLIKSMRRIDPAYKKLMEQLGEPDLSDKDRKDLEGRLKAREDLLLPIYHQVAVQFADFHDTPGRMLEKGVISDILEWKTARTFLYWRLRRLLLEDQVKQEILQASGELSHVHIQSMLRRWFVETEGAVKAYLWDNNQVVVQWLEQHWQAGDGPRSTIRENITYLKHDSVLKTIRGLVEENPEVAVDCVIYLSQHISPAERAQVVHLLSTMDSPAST

| SMILES | IC50 [nM] |
| --- | --- |
| C[C@@H](NC(=O)[C@H]1CC[C@H](NS(=O)(=O)c2ccc3c(c2)C(NC(=O)C(F)(F)F)CCN3)CC1)c1ccc(F)cc1 (stereo partly drawn) [Example 185, (1r,4R)-N-((R)-1-(4-fluorophenyl)ethyl)-4-(4-(2,2,2-trifluoroacetamido)-1,2,3,4-tetrahydroquinoline-6-sulfonamido)cyclohexanecarboxamide] | > 35000 |
| O=C([C@H]1CC[C@H](NS(=O)(=O)c2cnc3c(c2)NCCN3)CC1)N1CCNCC1c1ccccc1 (some centres unmarked) [Example 186, N-((1r,4r)-4-(2-phenylpiperazine-1-carbonyl)cyclohexyl)-1,2,3,4-tetrahydropyrido[3,2-b]pyrazine-7-sulfonamide] | 245 |
| O=C([C@H]1CC[C@H](NS(=O)(=O)c2ccc3c(c2)NC(C(F)(F)F)CC3)CC1)N1CCNCC1c1ccccc1 (some centres unmarked) [Example 187, N-((1r,4r)-4-(2-phenylpiperazine-1-carbonyl)cyclohexyl)-2-(trifluoromethyl)-1,2,3,4-tetrahydroquinoline-7-sulfonamide] | 245 |
| Cc1cc2c(cc1S(=O)(=O)N[C@H]1CC[C@H](C(=O)N[C@H](C)c3ccc(F)cc3)CC1)NCCC2 [Example 188, (1r,4R)-N-((R)-1-(4-fluorophenyl)ethyl)-4-(6-methyl-1,2,3,4-tetrahydroquinoline-7-sulfonamido)cyclohexanecarboxamide] | 375 |
| O=C([C@H]1CC[C@H](NS(=O)(=O)c2cnc3c(c2)NCCN3)CC1)N1CCNC[C@@H]1c1ccccc1 [Example 191, N-((1S,4r)-4-((S)-2-phenylpiperazine-1-carbonyl)cyclohexyl)-1,2,3,4-tetrahydropyrido[3,2-b]pyrazine-7-sulfonamide] | 150 |
| O=C([C@H]1CC[C@H](NS(=O)(=O)c2cnc3c(c2)NCCN3)CC1)N1CCOCC1c1ccccc1 (some centres unmarked) [Example 194, N-((1r,4r)-4-(3-phenylmorpholine-4-carbonyl)cyclohexyl)-1,2,3,4-tetrahydropyrido[3,2-b]pyrazine-7-sulfonamide] | 210 |
| C[C@@H](NC(=O)[C@H]1CC[C@H](NS(=O)(=O)c2ccc3c(c2)NC(=O)CC3(C)C)CC1)c1ccc(F)cc1 [Example 195, (1r,4R)-4-(4,4-dimethyl-2-oxo-1,2,3,4-tetrahydroquinoline-7-sulfonamido)-N-((R)-1-(4-fluorophenyl)ethyl)cyclohexanecarboxamide] | 335 |
| C[C@@H](NC(=O)[C@H]1CC[C@H](NS(=O)(=O)c2ccc3c(c2)NCCC3(C)C)CC1)c1ccc(F)cc1 [Example 196, (1r,4R)-4-(4,4-dimethyl-1,2,3,4-tetrahydroquinoline-7-sulfonamido)-N-((R)-1-(4-fluorophenyl)ethyl)cyclohexanecarboxamide] | 220 |
| C[C@H](NC(=O)[C@H]1CC[C@@H](NS(=O)(=O)c2cnc3c(c2)NCCN3)CC1)c1ccc(F)cc1 [Example 198, (1s,4S)-N-((R)-1-(4-fluorophenyl)ethyl)-4-(1,2,3,4-tetrahydropyrido[3,2-b]pyrazine-7-sulfonamido)cyclohexanecarboxamide] | > 35000 |
| C[C@@H](NC(=O)[C@H]1CC[C@H](NS(=O)(=O)c2ccc3nc(NCCC(=O)O)ccc3c2)CC1)c1ccc(F)cc1 [Example 203, 3-(6-(N-((1R,4r)-4-((R)-1-(4-fluorophenyl)ethylcarbamoyl)cyclohexyl)sulfamoyl)quinolin-2-ylamino)propanoic acid] | 305 |
| CCOc1ccc2cc(S(=O)(=O)N[C@H]3CC[C@H](C(=O)N4CCNCC4c4ccccc4)CC3)ccc2n1 (some centres unmarked) [Example 204, 2-ethoxy-N-((1r,4r)-4-(2-phenylpiperazine-1-carbonyl)cyclohexyl)quinoline-6-sulfonamide] | 80 |
| COCCNC(=O)c1ccc2cc(S(=O)(=O)N[C@H]3CC[C@H](C(=O)N[C@H](C)c4ccc(F)cc4)CC3)ccc2n1 [Example 207, 6-(N-((1R,4r)-4-((R)-1-(4-fluorophenyl)ethylcarbamoyl)cyclohexyl)sulfamoyl)-N-(2-methoxyethyl)quinoline-2-carboxamide] | 355 |
| C[C@@H](NC(=O)[C@H]1CC[C@H](NS(=O)(=O)c2cnc3c(c2)N(C(=O)OC2CCCCC2)CCN3)CC1)c1ccc(F)cc1 [Example 210, cyclohexyl 7-(N-((1R,4r)-4-((R)-1-(4-fluorophenyl)ethylcarbamoyl)cyclohexyl)sulfamoyl)-3,4-dihydropyrido[3,2-b]pyrazine-1(2H)-carboxylate] | 225 |
| CCOc1ccc2cc(S(=O)(=O)N[C@H]3CC[C@H](C(=O)N[C@H](CC(=O)OC(C)(C)C)c4ccccc4)CC3)ccc2n1 [Example 211, (R)-tert-butyl 3-((1r,4R)-4-(2-ethoxyquinoline-6-sulfonamido)cyclohexanecarboxamido)-3-phenylpropanoate] | 180 |
| CC(C)COC(=O)N1CCC(C)(C)c2ccc(S(=O)(=O)N[C@H]3CC[C@H](C(=O)N[C@H](C)c4ccc(F)cc4)CC3)cc21 [Example 212, isobutyl 7-(N-((1R,4r)-4-((R)-1-(4-fluorophenyl)ethylcarbamoyl)cyclohexyl)sulfamoyl)-4,4-dimethyl-3,4-dihydroquinoline-1(2H)-carboxylate] | 165 |
| C[C@@H](NC(=O)[C@H]1CC[C@H](NS(=O)(=O)c2ccc3nc(N4CCOCC4)ccc3c2)CC1)c1ccc(F)cc1 [Example 213, (1r,4R)-N-((R)-1-(4-fluorophenyl)ethyl)-4-(2-morpholinoquinoline-6-sulfonamido)cyclohexanecarboxamide] | 95 |
| CC(C)COC(=O)N1CCN(C(=O)OCC(C)C)c2cc(S(=O)(=O)N[C@H]3CC[C@H](C(=O)N[C@H](C)c4ccc(F)cc4)CC3)ccc21 [Example 214, diisobutyl 6-(N-((1R,4r)-4-((R)-1-(4-fluorophenyl)ethylcarbamoyl)cyclohexyl)sulfamoyl)-2,3-dihydroquinoxaline-1,4-dicarboxylate] | 365 |

Further compounds by falling IC50, results first:

| IC50 [nM] | SMILES |
| --- | --- |
| 80 | COCCNc1ccc2cc(S(=O)(=O)N[C@H]3CC[C@H](C(=O)N[C@H](C)c4ccc(F)cc4)CC3)ccc2n1 [Example 201, (1r,4R)-N-((R)-1-(4-fluorophenyl)ethyl)-4-(2-(2-methoxyethylamino)quinoline-6-sulfonamido)cyclohexanecarboxamide] |
| 75 | C[C@@H](NC(=O)C1CCC(NS(=O)(=O)c2cnc3c(c2)N[C@@H](Cc2ccccc2)CS3)CC1)c1ccc(F)cc1 (stereo partly drawn) [Example 189, 4-((S)-2-benzyl-2,3-dihydro-1H-pyrido[2,3-b][1,4]thiazine-7-sulfonamido)-N-((R)-1-(4-fluorophenyl)ethyl)cyclohexanecarboxamide] |
| 75 | [2H]C1([2H])Nc2cc(S(=O)(=O)NC3CCC(C(=O)N[C@H](C)c4ccc(F)cc4)CC3)cnc2NC1([2H])[2H] (stereo partly drawn) [Example 199, (R)-N-(1-(4-fluorophenyl)ethyl)-4-(2,2,3,3-tetradeuterio-1,2,3,4-tetrahydropyrido[3,2-b]pyrazine-7-sulfonamido)cyclohexanecarboxamide] |
| 60 | CC(C)COC(=O)N1CCNc2ncc(S(=O)(=O)N[C@H]3CC[C@H](C(=O)N[C@H](C)c4ccc(F)cc4)CC3)cc21 [Example 200, isobutyl 7-(N-((1R,4r)-4-((R)-1-(4-fluorophenyl)ethylcarbamoyl)cyclohexyl)sulfamoyl)-3,4-dihydropyrido[3,2-b]pyrazine-1(2H)-carboxylate] |
| 40 | C[C@@H](NC(=O)[C@]1(C)CC[C@@H](NS(=O)(=O)c2cnc3c(c2)NCCN3)CC1)c1ccc(F)cc1 [Example 197, (1r,4R)-N-((R)-1-(4-fluorophenyl)ethyl)-1-methyl-4-(1,2,3,4-tetrahydropyrido[3,2-b]pyrazine-7-sulfonamido)cyclohexanecarboxamide] |
| 35 | C[C@@H](NC(=O)C1CCC(NS(=O)(=O)c2cnc3c(c2)N[C@H](Cc2ccccc2)CS3)CC1)c1ccc(F)cc1 (stereo partly drawn) [Example 190, 4-((R)-2-benzyl-2,3-dihydro-1H-pyrido[2,3-b][1,4]thiazine-7-sulfonamido)-N-((R)-1-(4-fluorophenyl)ethyl)cyclohexanecarboxamide] |
| 20 | C[C@@H](NC(=O)[C@H]1CC[C@H](NS(=O)(=O)c2ccc3nc(-c4ccccc4)ccc3c2)CC1)c1ccc(F)cc1 [Example 202, (1r,4R)-N-((R)-1-(4-fluorophenyl)ethyl)-4-(2-phenylquinoline-6-sulfonamido)cyclohexanecarboxamide] |
| 20 | CCOc1ccc2cc(S(=O)(=O)NC3CCC(C(=O)NC(CO)c4ccccc4)CC3)ccc2n1 [Example 205, (1r,4S)-4-(2-ethoxyquinoline-6-sulfonamido)-N-((S)-2-hydroxy-1-phenylethyl)cyclohexanecarboxamide] |
| 20 | CCOc1ccc2cc(S(=O)(=O)N[C@H]3CC[C@H](C(=O)N[C@@H](c4ccccc4)C(C)(C)O)CC3)ccc2n1 [Example 206, (1r,4S)-4-(2-ethoxyquinoline-6-sulfonamido)-N-((S)-2-hydroxy-2-methyl-1-phenylpropyl)cyclohexanecarboxamide] |
| 20 | CCOC(=O)N1CCNc2ncc(S(=O)(=O)N[C@H]3CC[C@H](C(=O)N[C@H](C)c4ccc(F)cc4)CC3)cc21 [Example 209, ethyl 7-(N-((1R,4r)-4-((R)-1-(4-fluorophenyl)ethylcarbamoyl)cyclohexyl)sulfamoyl)-3,4-dihydropyrido[3,2-b]pyrazine-1(2H)-carboxylate] |
| 15 | O=C([C@H]1CC[C@H](NS(=O)(=O)c2cnc3c(c2)NCCS3)CC1)N1CCNC[C@@H]1c1ccccc1 [Example 192, N-((1S,4r)-4-((S)-2-phenylpiperazine-1-carbonyl)cyclohexyl)-2,3-dihydro-1H-pyrido[2,3-b][1,4]thiazine-7-sulfonamide] |
| 15 | O=C([C@H]1CC[C@H](NS(=O)(=O)c2cnc3c(c2)NCCS3)CC1)N1CCOCC1c1ccccc1 (some centres unmarked) [Example 193, N-((1r,4r)-4-(3-phenylmorpholine-4-carbonyl)cyclohexyl)-2,3-dihydro-1H-pyrido[2,3-b][1,4]thiazine-7-sulfonamide] |

Reference: US8697739B2, “Bicyclic acetyl-CoA carboxylase inhibitors and uses thereof” (Novartis AG, priority 2010, dated 2014)
